Test results published in patent US20170239239A1, “Method for Inducing a Sustained Immune Response” (Immune Therapeutics Inc., priority 2016, published 2017).

Tests used:
[1] = tested on: psoriatic arthritis; test: Case report, psoriatic arthritis; format: in vivo, human
[2] = tested on: patients with AIDS; conditions: cited from earlier work
[3] = tested on: prostate cancer; test: Case report, stage 3 prostate cancer; format: in vivo, human; conditions: person; 4.5 mg nightly with Docetaxel
Description: person was diagnosed with stage 3 prostate cancer which they were originally treated for 5 years before began 3 rounds of Docetaxel (Taxotere®).

[4] = tested on: autism; test: 10 studies of naltrexone in 155 children with autism; format: in vivo, human
Description: 155 children participated in 10 studies; 27 received placebo.

[5] = tested on: Follicular Lymphoma (FL); conditions: 1 year after last CT/PET imaging; cited from earlier work
[6] = tested on: primary progressive multiple sclerosis (PPMS); test: Six month phase II multicenter pilot trial in primary progressive multiple sclerosis, 40 patients; format: in vivo, human
Method: The primary end points were safety and tolerability. Secondary outcomes were efficacy on spasticity, pain, fatigue, depression, and quality of life. Clinical and biochemical evaluations were serially performed. Protein concentration of beta-endorphins (BE) and mRNA levels and allelic variants of the mu-opioid receptor gene (OPRM1) were analyzed.

[7] = tested on: Systemic Lupus; test: Case reports, systemic lupus; conditions: person
[8] = tested on: asymptomatic HIV+ adults; test: Single blind 90 day randomized bridging clinical trial in Nigeria; format: in vivo, human
Method: The differences in CD4 count, CD4%, hemoglobin, viral load, interferon alpha, and standard chemistry panel were measured between treated versus non-treated groups four times throughout the study. […] When used alone, it appears to slow and/or stop the progression of the disease.

[9] = tested on: Crohn's disease; test: Pilot clinical trial in children with moderate to severe Crohn's disease; format: in vivo, human
Method: A pilot clinical trial was conducted in children with moderate to severe Crohn's disease. Fourteen subjects with a mean age of 12.3 years (range, 8 to 17 y) were enrolled. […] Safety and toxicity were monitored by physical examinations and blood chemistries. Clinical activity was assessed by the Pediatric Crohn's Disease Activity Index (PCDAI) and Quality of life was monitored by the Impact III survey.

[10] = tested on: HIV/AIDS patients; test: Naltrexone as adjunct therapy, 50 HIV patients in Africa; format: in vivo, human
Description: Naltrexone as an adjunct therapy with HIV/AIDS patients. […] HIV disease is associated with a new constellation of problems, generally referred to as “non-AIDS morbidity”, and, in the popular press, “premature aging. […] at risk for developing a number of non-AIDS conditions, including cardiovascular disease, cancer, kidney disease, liver disease, osteopenia/osteoporosis and neurocognitive disease (collectively referred to as “serious non-AIDS events”). Malignancies associated with infections such as human papilloma virus (including uro-genital and head and neck cancers), Epstein Barr Virus (including Hodgkins disease), and hepatitis B and C (hepatocellular carcinoma), are also relatively common in HIV-infected adult. […] Subtle elevations in many of these biomarkers are associated with dramatic increases in the risk of subsequent disease, including all-cause mortality For example, as compared to a well-matched uninfected population, treated HIV-infected adults have approximately 50 to 100% higher levels of the inflammatory cytokine interleukin-6 (IL-6)^(32). […] Risk factors for impaired CD4 T-cell recovery include low pre-treatment CD4+ T cell count nadir, co-infection with other viruses such as hepatitis C, older age, and perhaps viral factors(24). Suboptimal treatment-mediated CD4+ T cell outcomes likely have clinical consequences given the consistent association between CD4+ T cell counts during ART and elevated risk of many co-morbidities (e.g., heart disease, cancer) and all-cause mortality. Chronic signaling through the interferon-alpha pathway may contribute to this inflammatory disease^(32), as can the impact of virus production/entry (without productive infection) on pyroptosis, which is a highly inflammatory process that can cause death of affected and neighboring cells. The frequency of activated T cells remains elevated during chronic treatment and appears related to size of the HIV reservoir and pace of immune reconstitution although the effect of this marker in predicting overall morbidity and mortality is not as strong as some of the innate immune system inflammatory markers^(37).
We believe that long term monitoring of patients will show a reduction in non-AIDS morbidity.

[11] = tested on: MS patients; test: Retrospective chart review of MS patients receiving LDN; format: in vivo, human
Description: This study investigated the safety, tolerability, and benefits (fatigue, reduction) of LDN in patients with MS. It reviewed the number of patients who stopped taking LDN and if there were specific reasons for stopping the LDN. The frequency and variety of side effects that were specific to LDN use are reported. […] 1, 2005 and May 31, 2012. There were 215 MS patients having exposure to LDN during the time of this study. […] In addition to the assessment we review Brain MRIs and Spinal Cord MRIs that were obtained as part of the clinical status of the patient and standard of care.
It reviewed the number of patients who stopped taking IMMEDIATE RELEASE NALTREXONE (LDN) and if there were specific reasons for stopping the IMMEDIATE RELEASE NALTREXONE (LDN). […] 1, 2005 and May 31, 2012. […] In addition to the assessment we review Brain Mills and Spinal Cord MRIs that were obtained as part of the clinical status of the patient and standard of care.

[12] = 3.0 mg daily at bedtime, 12 weeks, vs placebo
[13] = of the 128 that received naltrexone

## O=C1CC[C@@]2(O)[C@H]3Cc4ccc(O)c5c4[C@@]2(CCN3CC2CC2)[C@H]1O5 [Immediate release naltrexone, naltrexone]
[1]; person, 4.5 mg at bedtime, within 10 days
  use of other medication: able to discontinue all paid medications as well as the Humira
[1]; six months
  disease course: the disease has stabilized and the progressive deterioration has stopped
[2]; 1.75 mg nightly, 3-month double-blind period, vs placebo p<0.01
  elevated levels of serum alpha interferon (IFN-α): significant drop
[2]; [12]
  lymphocyte mitogen responses: declined on placebo and not on Immediate release naltrexone
  pathologically elevated levels of acid-labile alpha interferon: declined significantly
[2]; 3.0 mg daily at bedtime, 12 weeks, placebo 5 out of 16 (31%)
  incidence of opportunistic infections: 0 of the 22
[2]; 2 of the 15
  survival of patients who did not show a decline in IFN-a: 13%
[2]; Nineteen of the 23
  survival of patients who showed a decline in IFN-a: 83%
[2]; from mean of 144.9 IU. over a 12-month period, 23 patients
  mean IFN-a level after decline: 11.0 IU.
[2]; human, in vivo
  side effects: No side effects were noted
[3]
  blood work: stayed stable
  overall quality of life: much better
[4]; in vivo
  side effects: mild
  tolerability: generally well tolerated
[4]; [13]
  children with statistically significant improvement in irritability and hyperactivity: 77%
  children with statistically significant improvement in irritability and hyperactivity, number: 98
[5]
  disease symptoms at follow-up: remains asymptomatic
[6]; 40 patients
  major adverse events: two
[6]; during the trial
  BE (beta-endorphins) concentration: increased
[6]; end of the trial
  spasticity: significant reduction
[6]; human, in vivo
  Neurological disability: progressed in only one patient
[6]; six months
  safety and tolerability: safe and well tolerated
[7]; 3 mg, within three weeks
  mobility: improved mobility
[7]; 4.5 mg, since March of 2013
  hospital stays: no hospital stays
[7]; for 7 years
  ANA: normal
[7]; liquid form titrated from 0.1 mg to 1.5 mg
  Lupus status: in remission
[7]; started at 1.5 mg
  tolerability: unable to take it due to insomnia and pruritis
[8]; about 4.5 mg single oral dose with ART, at 3 months, vs control group
  improvement in CD4 count, increase: 44%
[8]; about 4.5 mg with ART
  BMI: increase
  opportunistic infections: reduction
[8]; about 4.5 mg with ART, throughout treatment
  Improvement in CD4%: statistically significant
[9]; 0.1 mg/kg orally, 8-week course, pretreatment 34.2±3.3, P=0.005
  PCDAI score: 21.7±3.9
[9]; P=0.035
  Systemic and social quality of life (Impact III): improved
[9]; end of the study
  improved with mild disease activity (decrease in PCDAI score by at least 10 points): 67%
  in remission (score≦10): Twenty-five
[9]; oral
  tolerability: well tolerated without any serious adverse events
[10]; long term
  opportunistic infection: reduction
  quality of life: higher
[10]; with standard of care (ART)
  Th1/Th2 balance: shift from Th1 (pro-inflammatory) to Th2 (anti-inflammatory)
  inflammatory cytokine: Secreased
[11]; human, in vivo
  quality of life surveys: patients improved: 83 patients
  quality of life surveys: patients stable: 92 patients
  quality of life surveys: patients worse: 9
[11]; of 215 patients
  MRI scans showed improvement: 14
  MRI scans stable: 113
[11]; of 215 patients, new but inactive lesion(s)
  MRI scans slightly worse: 28
[11]; over a long period of time
  quality of life: improvement
